Data: patent US20240382572A1, “COMBINATIONS OF CHECKPOINT INHIBITORS AND THERAPEUTICS TO TREAT CANCER” (Cognate Bioservices, Inc., priority 2013, published 2024)

How the values were obtained:
GL261 murine glioma [1] = test: Flow cytometry of tumor, lymph node and spleen harvests from GL261 glioma-bearing mice; type: in vivo, C57BL/6 mice
Protocol: Mice were intracranially implanted with GL261 murine glioma and then administered PBS (Ix) or lysate-pulsed DC vaccine subcutaneously on days 3 and 13 post-tumor implant. On day 16, 72 h after the second treatment, mice were euthanized and spleen, lymph, and brain hemispheres harvested for processing.
Spleen, lymph, and brain hemispheres harvested for processing on day 16 post-implant (72 h after second treatment).
Bone marrow-derived DC and vaccination. […] Briefly, bone marrow cells were cultured in a humidified atmosphere of 5% CO2 at 37° C. overnight in complete RPMI (Mediatech, Inc. Herndon, VA) (supplemented with 10% FBS, 1% (v/v) penicillin and streptomycin). The day following, nonadherent cells were collected and plated with murine interleukin-4 (IL-4, 400 IU/mL, R&D Systems, Minneapolis, MN) and murine granulocyte-macrophage colony stimulating factor (GM-CSF, 100 ng/mL, R&D Systems, Minneapolis, MN). On day 4, adherent cells were re-fed with fresh media with the same cytokines. On day 7, DCs were harvested and resuspended at 1×10^6 cells/ml in complete RPMI and pulsed with GL261 lysate (250 μg/mL). On day 8, DCs were collected and resuspended at 2×10^6 cells/mL in PBS Ix and immediately prepared for injection in 0.2 mL of cell suspension per mouse. Injections were given subcutaneously (s.c.) at 4 sites on the back.
Intracranial glioma implants. […]

GL261 murine glioma [2] = test: Survival of mice with intracranial GL261 glioma; type: in vivo, C57BL/6 mice; conditions: mice with well-established intracranial GL261 glioma
PD-1 = molecular target: T1, PD-1 (Homo sapiens, UniProt Q15116); conditions: phase II, DLBCL, cited from earlier work
T1 construct: host or cells: Trial subjects (patients); PD-1 is endogenous
T1 sequence (Q15116 25-288): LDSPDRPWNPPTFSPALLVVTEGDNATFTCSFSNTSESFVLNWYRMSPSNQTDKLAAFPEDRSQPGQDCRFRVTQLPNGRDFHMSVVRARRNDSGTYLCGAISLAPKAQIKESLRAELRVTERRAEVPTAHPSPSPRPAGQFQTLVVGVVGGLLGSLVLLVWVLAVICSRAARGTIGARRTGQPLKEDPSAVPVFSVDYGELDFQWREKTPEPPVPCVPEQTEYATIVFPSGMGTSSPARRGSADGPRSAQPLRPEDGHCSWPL

| Compound | myeloid cells expressing PD-L1 (Thy1.2- Ly6C+ PD-L1+) in tumor (GL261 murine glioma [1]) | activated tumor-infiltrating lymphocytes (CD3+ CD8+ CD25+) (GL261 murine glioma [1]; day 16 post-implant) | survival (GL261 murine glioma [2]) | subjects alive (PD-1; preliminary results) [%] | subjects progression-free at the end of the follow-up period (PD-1; preliminary results) [%] | activity of natural killer cells (PD-1) |
| --- | --- | --- | --- | --- | --- | --- |
| FC(F)(F)c1ccc(CNc2ccc(Cc3c[nH]c4ncc(Cl)cc34)cn2)cn1 [PLX3397] | absence of these Ly6C^+ PD-L1^+ cells | significant tumor-infiltrating population | entirely recovered survival benefit | – | – | – |
| CT-011: humanized IgG1 monoclonal antibody against PD-1 | – | – | – | 82 | 70 | augments the activity of natural killer cells |
